Experimental data taken from US9446039B2, “Aminoheteroaryl compounds as MTH1 inhibitors” (CEMM—FORSCHUNGSZENTRUM FÜR MOLEKULARE MEDIZIN GMBH, priority 2012, dated 2016).

Experiments:
Assay type in all cases: binding
[1] = target: T1, SW480 colon carcinoma cells lysate proteins (Homo sapiens, UniProt P55145); details: PreyGene MANF
T1 sequence (P55145 25-182): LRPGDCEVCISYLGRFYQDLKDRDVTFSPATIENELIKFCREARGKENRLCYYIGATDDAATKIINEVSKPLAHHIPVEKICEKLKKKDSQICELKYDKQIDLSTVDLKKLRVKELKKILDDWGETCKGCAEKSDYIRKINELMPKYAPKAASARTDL

[2] = target: SW480 colon carcinoma cells lysate proteins (Homo sapiens, UniProt P12814); details: PreyGene ACTN1
[3] = target: SW480 colon carcinoma cells lysate proteins (Homo sapiens, UniProt P15559); details: PreyGene NQO1
[4] = target: SW480 colon carcinoma cells lysate proteins (Homo sapiens, UniProt Q71UM5); details: PreyGene RPS27L; SW480 cells
[5] = target: T2, SW480 colon carcinoma cells lysate proteins (Homo sapiens, UniProt Q9UJZ1); details: PreyGene STOML2; SW480 cells
T2 sequence (Q9UJZ1 29-356): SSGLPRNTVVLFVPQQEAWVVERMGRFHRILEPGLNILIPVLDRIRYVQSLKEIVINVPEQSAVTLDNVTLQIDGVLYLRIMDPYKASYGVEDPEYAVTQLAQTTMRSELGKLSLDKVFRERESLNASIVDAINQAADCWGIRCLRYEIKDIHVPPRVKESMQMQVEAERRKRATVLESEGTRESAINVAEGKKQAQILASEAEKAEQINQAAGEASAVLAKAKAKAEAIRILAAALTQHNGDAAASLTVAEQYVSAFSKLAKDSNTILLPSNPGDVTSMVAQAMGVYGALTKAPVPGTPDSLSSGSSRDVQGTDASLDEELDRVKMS

[6] = target: T3, SW480 colon carcinoma cells lysate proteins (Homo sapiens, UniProt P16949); details: PreyGene STMN1
T3 sequence (P16949 1-149): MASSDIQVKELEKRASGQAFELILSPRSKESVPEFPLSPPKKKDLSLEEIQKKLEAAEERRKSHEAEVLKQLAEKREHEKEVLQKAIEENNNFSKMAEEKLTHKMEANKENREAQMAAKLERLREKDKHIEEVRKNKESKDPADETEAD

[7] = target: T4, SW480 colon carcinoma cells lysate proteins (Homo sapiens, UniProt P04264); details: PreyGene KRT1
T4 sequence (P04264 1-644): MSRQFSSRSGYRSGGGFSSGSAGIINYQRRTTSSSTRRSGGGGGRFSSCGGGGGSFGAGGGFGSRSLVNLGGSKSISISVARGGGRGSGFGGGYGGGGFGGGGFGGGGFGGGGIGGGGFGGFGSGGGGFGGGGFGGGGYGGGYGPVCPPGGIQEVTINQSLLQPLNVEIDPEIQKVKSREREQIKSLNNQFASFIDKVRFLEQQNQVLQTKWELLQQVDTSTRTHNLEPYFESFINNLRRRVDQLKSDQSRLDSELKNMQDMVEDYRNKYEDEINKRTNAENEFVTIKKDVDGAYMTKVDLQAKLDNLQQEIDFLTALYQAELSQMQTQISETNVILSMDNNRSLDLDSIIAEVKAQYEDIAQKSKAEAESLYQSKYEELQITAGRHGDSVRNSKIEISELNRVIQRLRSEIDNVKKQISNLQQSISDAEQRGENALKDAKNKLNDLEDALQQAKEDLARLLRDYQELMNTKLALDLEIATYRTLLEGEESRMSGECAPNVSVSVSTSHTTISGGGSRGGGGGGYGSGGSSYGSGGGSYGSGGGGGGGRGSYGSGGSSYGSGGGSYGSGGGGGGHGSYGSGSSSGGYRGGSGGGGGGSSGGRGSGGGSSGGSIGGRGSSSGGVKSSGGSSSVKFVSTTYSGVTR

[8] = target: SW480 colon carcinoma cells lysate proteins (Homo sapiens, UniProt P07858); details: PreyGene CTSB
[9] = target: SW480 colon carcinoma cells lysate proteins (Homo sapiens, UniProt O75874); details: PreyGene IDH1
[10] = target: T5, SW480 colon carcinoma cells lysate proteins (Homo sapiens, UniProt P31949); details: PreyGene S100A11
T5 sequence (P31949 1-105): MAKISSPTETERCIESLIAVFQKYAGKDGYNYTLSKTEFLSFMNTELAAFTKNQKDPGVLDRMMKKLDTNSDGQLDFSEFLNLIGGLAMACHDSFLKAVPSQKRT

Sequence of SW480 colon carcinoma cells lysate proteins (Homo sapiens, UniProt O75874) (O75874 whole entry): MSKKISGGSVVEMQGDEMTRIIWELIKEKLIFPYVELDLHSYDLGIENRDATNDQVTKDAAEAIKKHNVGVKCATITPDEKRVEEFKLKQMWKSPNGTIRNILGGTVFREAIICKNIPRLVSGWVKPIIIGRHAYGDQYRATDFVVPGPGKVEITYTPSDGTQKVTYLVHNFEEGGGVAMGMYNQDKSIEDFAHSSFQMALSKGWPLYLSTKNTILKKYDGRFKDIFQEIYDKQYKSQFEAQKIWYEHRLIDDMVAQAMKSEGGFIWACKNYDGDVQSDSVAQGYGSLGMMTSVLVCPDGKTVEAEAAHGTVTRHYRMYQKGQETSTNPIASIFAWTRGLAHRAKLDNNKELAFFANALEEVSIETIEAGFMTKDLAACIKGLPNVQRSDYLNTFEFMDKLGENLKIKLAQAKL
Sequence of SW480 colon carcinoma cells lysate proteins (Homo sapiens, UniProt P15559) (P15559 whole entry): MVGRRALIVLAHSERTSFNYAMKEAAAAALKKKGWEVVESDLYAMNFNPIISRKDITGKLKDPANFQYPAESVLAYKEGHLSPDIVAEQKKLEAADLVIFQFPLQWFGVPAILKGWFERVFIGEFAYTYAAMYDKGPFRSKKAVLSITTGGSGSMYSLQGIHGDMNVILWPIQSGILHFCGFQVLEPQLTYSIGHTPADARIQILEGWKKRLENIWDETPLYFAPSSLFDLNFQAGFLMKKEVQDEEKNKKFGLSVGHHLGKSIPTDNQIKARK
Sequence of SW480 colon carcinoma cells lysate proteins (Homo sapiens, UniProt P12814) (P12814 whole entry): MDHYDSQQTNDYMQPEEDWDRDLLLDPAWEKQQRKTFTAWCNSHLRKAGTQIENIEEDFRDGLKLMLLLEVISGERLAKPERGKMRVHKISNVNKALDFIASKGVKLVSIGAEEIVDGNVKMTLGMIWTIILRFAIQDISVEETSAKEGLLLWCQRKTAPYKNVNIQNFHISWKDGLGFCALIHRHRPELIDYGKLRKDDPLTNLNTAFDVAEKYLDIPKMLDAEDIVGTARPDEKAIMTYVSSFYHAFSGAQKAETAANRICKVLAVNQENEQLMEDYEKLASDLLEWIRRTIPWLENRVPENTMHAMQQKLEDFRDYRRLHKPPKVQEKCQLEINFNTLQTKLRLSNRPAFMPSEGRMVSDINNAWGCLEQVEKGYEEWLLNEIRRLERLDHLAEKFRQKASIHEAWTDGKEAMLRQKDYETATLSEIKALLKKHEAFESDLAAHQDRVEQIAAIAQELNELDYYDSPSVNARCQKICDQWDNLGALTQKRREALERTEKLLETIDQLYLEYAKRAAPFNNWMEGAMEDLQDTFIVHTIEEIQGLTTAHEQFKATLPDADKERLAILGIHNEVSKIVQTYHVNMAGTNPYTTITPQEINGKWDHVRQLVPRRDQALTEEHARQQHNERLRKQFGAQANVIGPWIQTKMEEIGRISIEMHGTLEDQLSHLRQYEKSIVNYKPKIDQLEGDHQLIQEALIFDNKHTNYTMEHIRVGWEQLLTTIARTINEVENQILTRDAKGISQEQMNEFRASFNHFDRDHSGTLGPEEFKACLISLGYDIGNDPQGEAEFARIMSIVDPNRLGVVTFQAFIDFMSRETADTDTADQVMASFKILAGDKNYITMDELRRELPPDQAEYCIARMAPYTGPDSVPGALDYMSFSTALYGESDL

Q: For `C[C@H](Oc1cc(-c2cnn(C3CCNCC3)c2)cnc1N)c1c(Cl)ccc(F)c1Cl` [(5)-crizotinib], which AvgP [1] is on record?
A: The AvgP was 0.3221.

Q: And the “SC.Exp. 1-1” value [1]?
A: Its value is 2.

Q: What about the “SC.Exp. 1-2” value [1] of the same molecule?
A: The value was 1.

Q: And the “SC.Exp. 2-1” value [1]?
A: Its value is 0.

Q: And the “SC.Exp. 2-2” value [1]?
A: Its value is 0.

Q: And the “Sum (SC.Exp.)” value [1]?
A: Its value is 3.

Q: What about the AvgP [2] of the same molecule?
A: The AvgP was 0.2142.

Q: What about the “SC.Exp. 1-1” value [2] of the same molecule?
A: Its value is 3.

Q: What about the “SC.Exp. 1-2” value [2] of the same molecule?
A: Its value is 1.

Q: What about the “SC.Exp. 2-1” value [2] of the same molecule?
A: Its value is 0.

Q: And the “SC.Exp. 2-2” value [2]?
A: The value was 0.

Q: And the “Sum (SC.Exp.)” value [2]?
A: Its value is 4.

Q: What about the AvgP [3] of the same molecule?
A: Its AvgP is 0.3104.

Q: What about the “SC.Exp. 1-1” value [3] of the same molecule?
A: Its value is 2.

Q: And the “SC.Exp. 1-2” value [3]?
A: Its value is 1.

Q: What about the “SC.Exp. 2-1” value [3] of the same molecule?
A: The value was 0.

Q: And the “SC.Exp. 2-2” value [3]?
A: The value was 0.

Q: What about the “Sum (SC.Exp.)” value [3] of the same molecule?
A: Its value is 3.

Q: And the AvgP [4]?
A: The AvgP was 0.

Q: What about the “SC.Exp. 1-1” value [4] of the same molecule?
A: The value was 0.

Q: And the “SC.Exp. 1-2” value [4]?
A: Its value is 1.

Q: And the “SC.Exp. 2-1” value [4]?
A: The value was 0.

Q: What about the “SC.Exp. 2-2” value [4] of the same molecule?
A: The value was 0.

Q: What about the “SC.Exp. Sum” value [4] of the same molecule?
A: Its value is 1.

Q: And the AvgP [5]?
A: Its AvgP is 0.

Q: And the “SC.Exp. 1-1” value [5]?
A: Its value is 5.

Q: And the “SC.Exp. 1-2” value [5]?
A: Its value is 4.

Q: And the “SC.Exp. 2-1” value [5]?
A: The value was 2.

Q: What about the “SC.Exp. 2-2” value [5] of the same molecule?
A: The value was 2.

Q: What about the “SC.Exp. Sum” value [5] of the same molecule?
A: The value was 13.

Q: What about the AvgP [6] of the same molecule?
A: Its AvgP is 0.4156.

Q: And the “SC.Exp. 1-1” value [6]?
A: Its value is 3.

Q: What about the “SC.Exp. 1-2” value [6] of the same molecule?
A: The value was 3.

Q: And the “SC.Exp. 2-1” value [6]?
A: The value was 0.

Q: And the “SC.Exp. 2-2” value [6]?
A: The value was 0.

Q: What about the “Sum (SC.Exp.)” value [6] of the same molecule?
A: The value was 6.

Q: And the AvgP [7]?
A: Its AvgP is 0.3569.

Q: And the “SC.Exp. 1-1” value [7]?
A: The value was 26.

Q: What about the “SC.Exp. 1-2” value [7] of the same molecule?
A: The value was 24.

Q: What about the “SC.Exp. 2-1” value [7] of the same molecule?
A: Its value is 5.

Q: And the “SC.Exp. 2-2” value [7]?
A: The value was 3.

Q: And the “Sum (SC.Exp.)” value [7]?
A: Its value is 58.

Q: And the AvgP [8]?
A: The AvgP was 0.1845.

Q: What about the “SC.Exp. 1-1” value [8] of the same molecule?
A: The value was 0.

Q: And the “SC.Exp. 1-2” value [8]?
A: Its value is 2.

Q: What about the “SC.Exp. 2-1” value [8] of the same molecule?
A: Its value is 0.

Q: And the “SC.Exp. 2-2” value [8]?
A: Its value is 0.

Q: What about the “Sum (SC.Exp.)” value [8] of the same molecule?
A: The value was 2.

Q: What about the AvgP [9] of the same molecule?
A: Its AvgP is 0.1991.

Q: And the “SC.Exp. 1-1” value [9]?
A: Its value is 3.

Q: And the “SC.Exp. 1-2” value [9]?
A: The value was 0.

Q: What about the “SC.Exp. 2-1” value [9] of the same molecule?
A: Its value is 0.

Q: And the “SC.Exp. 2-2” value [9]?
A: Its value is 0.

Q: And the “Sum (SC.Exp.)” value [9]?
A: The value was 3.

Q: What about the AvgP [10] of the same molecule?
A: The AvgP was 0.3773.

Q: And the “SC.Exp. 1-1” value [10]?
A: Its value is 4.

Q: And the “SC.Exp. 1-2” value [10]?
A: The value was 5.

Q: What about the “SC.Exp. 2-1” value [10] of the same molecule?
A: Its value is 0.

Q: What about the “SC.Exp. 2-2” value [10] of the same molecule?
A: Its value is 0.

Q: And the “Sum (SC.Exp.)” value [10]?
A: The value was 9.
